Measurements: PMC6005341, “Identification of “sarsasapogenin-aglyconed” timosaponins as novel Aβ-lowering modulators of amyloid precursor protein processing” (Chemical Science, 2016)

System: γ-secretase-mediated cleavage of Notch1
Assay: Notch cleavage by γ-secretase in N2A-APPswe cells transfected with NotchΔE (immunoblot)
Type: cell-based
Details: 18 h
Experimental: rabbit antibody (Millipore). The immunoreactivities were detected using enhanced chemiluminescence reagents (GE Health care).
For examination of notch cleavage by γ-secretase, N2A-APPswe cells were transfected with myc-tagged NotchΔE construct (pSC2 EMV-6MT, provided by Prof. Raphael Kopan, Washington University, St. Louis, MO) using Fugene HD (Roche). Cells were then treated with timosaponins for 18 h and the expression of NotchΔE and NICD were examined by immunoblot analysis using myc-tagged antibodies.
Aβ ELISA: Aβ concentrations in conditioned medium were assayed using ELISA kits for human Aβ40, human Aβ42 (ultrasensitive) (Invitrogen), human Aβ38 (MyBioSource) (in N2A-APPswe cells) or Wako High Sensitive Aβx-42 ELISA kit (in Rat primary cortical neuron culture). The viability of the N2A-APPswe and Primary cortical neurons were determined by MTT and LDH release assays, respectively. No significant effect of viability of the neuron […]
β-Secretase assays: Confluent N2A-APPswe cells were harvested and homogenized with 50 mM MES, pH5.5. […] The β-secretase activities were assayed by adding 10 µM fluorogenic β-secretase substrate (Millipore) to the reaction mixtures and the fluorescence (excitation, 380; emission, 460) were measured. β-Secretase assays were also performed using purified BACE1 (Millipore) at 100 ng in a buffer containing 50 mM MES, pH 5.5. […]

C[C@H](NC(=O)Cc1cc(F)cc(F)c1)C(=O)N[C@H](C(=O)OC(C)(C)C)c1ccccc1 [DAPT]
production of NICD: completely blocked
